Assay results from article PMC9687571, “Anti-Inflammatory Activity of Olive Oil Polyphenols—The Role of Oleacein and Its Metabolites” (Biomedicines, 2022).
Several values for one entry are separate records, joined by “and”; a condition that tells them apart may be missing. Identical values can stand only once. Like-named read-outs stand apart in the source and are kept apart here.

Assays:
[1] = target: PLA2 + 5-LOX coupled system (Apis mellifera, UniProt P00630); assay: biochemical; type: biochemical, Apis mellifera bee venom (PLA2), Glycine max (5-LOX); details: for IC50: read-out: IC50 PLA2 + 5-LOX coupled system; for inhibition at 100 µM: read-out: inhibition of PLA2 + 5-LOX coupled system
Sequence of PLA2 + 5-LOX coupled system (P00630 whole entry, looked up): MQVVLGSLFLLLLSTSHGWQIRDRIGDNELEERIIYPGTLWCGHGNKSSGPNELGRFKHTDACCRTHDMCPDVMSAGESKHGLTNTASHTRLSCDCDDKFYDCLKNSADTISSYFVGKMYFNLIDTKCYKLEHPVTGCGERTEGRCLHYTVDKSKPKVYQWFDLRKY

[2] = target: T1, 5-LOX (Glycine max, UniProt P08170); assay: 5-LOX inhibition assay; type: biochemical, Glycine max (soybean); details: for IC50: read-out: IC50 5-LOX pure enzyme; for inhibition at 100 µM: read-out: inhibition of the 5-LOX enzyme
T1 construct: purchased Sigma-Aldrich
T1 sequence (P08170 1-839): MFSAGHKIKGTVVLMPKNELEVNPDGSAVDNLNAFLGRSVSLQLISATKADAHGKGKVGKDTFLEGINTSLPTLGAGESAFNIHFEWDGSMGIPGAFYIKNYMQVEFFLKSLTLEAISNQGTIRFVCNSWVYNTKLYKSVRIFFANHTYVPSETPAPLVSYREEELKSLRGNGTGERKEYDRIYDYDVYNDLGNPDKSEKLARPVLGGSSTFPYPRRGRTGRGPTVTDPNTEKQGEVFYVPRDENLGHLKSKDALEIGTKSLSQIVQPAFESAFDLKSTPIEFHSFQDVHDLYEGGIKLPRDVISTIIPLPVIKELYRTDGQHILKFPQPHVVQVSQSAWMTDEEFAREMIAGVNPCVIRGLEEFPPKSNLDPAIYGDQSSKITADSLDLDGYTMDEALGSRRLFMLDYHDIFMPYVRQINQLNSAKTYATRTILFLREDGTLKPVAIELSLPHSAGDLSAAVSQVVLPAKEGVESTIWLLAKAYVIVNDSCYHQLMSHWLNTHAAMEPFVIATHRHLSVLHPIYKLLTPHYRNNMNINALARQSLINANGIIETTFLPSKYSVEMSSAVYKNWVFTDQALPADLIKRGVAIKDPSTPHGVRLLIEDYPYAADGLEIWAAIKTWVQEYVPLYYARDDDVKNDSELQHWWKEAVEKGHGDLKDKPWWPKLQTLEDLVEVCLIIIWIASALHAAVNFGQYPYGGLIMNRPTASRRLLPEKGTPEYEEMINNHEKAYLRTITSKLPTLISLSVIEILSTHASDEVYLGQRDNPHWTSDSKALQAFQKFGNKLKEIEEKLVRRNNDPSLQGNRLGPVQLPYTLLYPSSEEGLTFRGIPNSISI

[3] = target: T2, COX-1 (Ovis aries, UniProt P05979); assay: COX-1 inhibition assay (COX fluorescent inhibitor assay kit); type: biochemical
T2 construct: purchased Cayman Chemical
T2 sequence (P05979 25-600): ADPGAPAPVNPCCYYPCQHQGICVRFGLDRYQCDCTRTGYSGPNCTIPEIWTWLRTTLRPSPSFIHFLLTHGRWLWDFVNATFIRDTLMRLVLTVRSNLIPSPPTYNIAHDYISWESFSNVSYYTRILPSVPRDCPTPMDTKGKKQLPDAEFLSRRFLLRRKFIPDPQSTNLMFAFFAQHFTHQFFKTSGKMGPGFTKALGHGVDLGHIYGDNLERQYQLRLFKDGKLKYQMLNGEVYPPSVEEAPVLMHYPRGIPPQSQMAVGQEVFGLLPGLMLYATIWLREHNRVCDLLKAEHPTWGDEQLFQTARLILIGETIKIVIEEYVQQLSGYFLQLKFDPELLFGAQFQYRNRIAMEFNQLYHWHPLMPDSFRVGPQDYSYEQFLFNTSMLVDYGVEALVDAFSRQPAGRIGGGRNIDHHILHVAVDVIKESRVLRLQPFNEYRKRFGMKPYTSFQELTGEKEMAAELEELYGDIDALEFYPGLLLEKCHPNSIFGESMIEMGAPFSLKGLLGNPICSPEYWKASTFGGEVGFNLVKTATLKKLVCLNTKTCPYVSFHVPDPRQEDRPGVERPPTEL
Method: (§1) COX assays were performed using the COX fluorescent inhibitor assay kit with some modifications. This assay was based on the reaction between prostaglandin G2 (PGG2), product of COX activity, and 10-acetyl-3,7-dihydroxyphenoxazine (ADHP), producing a highly fluorescent compound, resorufin. Briefly, 60 µL of Tris-HCl buffer (100 mM, pH 8.0), 5 µL of hemin, 5 µL of COX (COX-1 or COX-2) and 5 µL of increasing concentrations of each compound (6.25–100 µM) were added to each well in a black 96-well plate. After 5 min, at room temperature, the reaction started by adding 5 µL of ADHP and 20 µL of substrate (AA 0.5 mM with KOH 2.5 mM) in each well. After 3 min, the fluorescence was measured at 590 nm, setting the excitation wavelength at 535 nm, using a multiplate reader Synergy H1 Biotek. The results were expressed as % of COX inhibition and correspond to the mean ± SEM of four independent assays, each performed in duplicate. SC-560 was used as the positive control for COX-1 and Dup-697 was used as the positive control for COX-2 assay.

[4] = target: T3, COX-2 (Homo sapiens, UniProt P35354); assay: COX-2 inhibition assay (COX fluorescent inhibitor assay kit); type: biochemical
T3 construct: purchased Cayman Chemical
T3 sequence (P35354 18-604): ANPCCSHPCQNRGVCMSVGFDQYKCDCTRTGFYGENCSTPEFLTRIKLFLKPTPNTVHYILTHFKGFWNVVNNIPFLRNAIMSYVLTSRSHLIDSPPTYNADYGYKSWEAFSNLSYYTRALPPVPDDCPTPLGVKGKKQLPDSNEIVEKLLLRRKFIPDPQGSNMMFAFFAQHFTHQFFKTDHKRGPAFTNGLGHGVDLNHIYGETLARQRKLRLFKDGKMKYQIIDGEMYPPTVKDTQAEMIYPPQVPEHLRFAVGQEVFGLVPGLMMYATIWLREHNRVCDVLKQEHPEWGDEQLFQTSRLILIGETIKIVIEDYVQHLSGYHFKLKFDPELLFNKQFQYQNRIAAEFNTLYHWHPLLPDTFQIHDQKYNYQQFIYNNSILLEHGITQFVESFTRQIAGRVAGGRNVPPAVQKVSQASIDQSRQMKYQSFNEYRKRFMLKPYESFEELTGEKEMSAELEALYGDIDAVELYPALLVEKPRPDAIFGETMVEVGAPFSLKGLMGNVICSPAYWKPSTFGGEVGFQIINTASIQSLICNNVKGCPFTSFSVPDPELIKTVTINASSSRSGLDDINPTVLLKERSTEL
Method: as §1

Row | SMILES | IC50 [1] [µM] | inhibition at 100 µM [1] [%] | IC50 [2] [µM] | inhibition at 100 µM [2] [%] | IC50 [3] [µM] | IC50 ([4]; read-out: IC50 COX-2) | inhibition at 100 µM ([2]; 100 µM, mean ± SEM) [%] | IC50 ([4]; IC50 COX-2) | inhibitory activity on COX-2, times greater than oleocanthal ([4]; from IC50 1.27 µM versus 16.6 µM) [times]
1 | CC(=O)OCCc1ccc(O)c(O)c1 [AcHyTy, hydroxytyrosol acetate] | 73.5 | 86.1 | 107 | 49 | 0.3 | 13.3 µM | – | – | –
2 | OCCc1ccc(O)c(O)c1 [HyTy, hydroxytyrosol] | – | 18.6 | – | – | 0.13 | – | 22.2 | 2.42 µM and 2.4 µM and < 3 µM | –
3 | C/C=C(/C=O)[C@@H](CC=O)CC(=O)OCCc1ccc(O)c(O)c1 [oleacein] | 16.1 | 100 | 45 | – | 1.46 | 1.27 µM and < 3 µM | 58.1 | – | 13
4 | C/C=C(/C=O)[C@@H](CC=O)CC(=O)OCCc1ccc(O)cc1 [oleocanthal, reference compound] | – | – | – | – | < 0.1 | 16.6 µM | – | – | –
5 | O=c1c(O)c(-c2ccc(O)c(O)c2)oc2cc(O)cc(O)c12 [quercetin, reference compound] | – | – | – | – | – | – | 59.5 | – | –
